Reference: PubChem BioAssay AID248 (DTP/NCI, 2004)
Where “and” joins values, the source holds several entries; their conditions need not be identical. Equal values may be shown once. Toxic doses and inconclusive results are not listed. Rule as the data show it: active = T/C of 150% or more; inactive = T/C below 125%.

Tested on: L1210 leukemia ip in BDF1 mice, survival T/C
Assay: NCI In Vivo Anticancer Drug Screen. Data for tumor model L1210 Leukemia (intraperitoneal) in B6D2F1 (BDF1) mice
Details: endpoint: mean survival time, higher = longer survival
Summary of the method: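 In this screen, tumor-bearing mice given compound are compared to those given vehicle, and their survival values are reported as a treated-to-control quotient.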

[1] = dose: 100.0 mg/kg/injection, schedule: Q04DX003 (ip), vehicle: saline
[2] = dose: 200.0 mg/kg/injection, schedule: Q04DX003 (ip), vehicle: saline
[3] = dose: 400.0 mg/kg/injection, schedule: Q04DX003 (ip), vehicle: saline
[4] = dose: 100.0 mg/kg/injection, schedule: Q04DX003 (ip), vehicle: saline with Tween-80
[5] = dose: 200.0 mg/kg/injection, schedule: Q04DX003 (ip), vehicle: saline with Tween-80
[6] = dose: 400.0 mg/kg/injection, schedule: Q04DX003 (ip), vehicle: saline with Tween-80

Measured: T/C

CN=C(N)N(C)NCc1ccccc1
inactive: dose: 25.0 mg/kg/injection, schedule: Q04DX003 (ip), vehicle: saline 100 % of control | dose: 50.0 mg/kg/injection, schedule: Q04DX003 (ip), vehicle: saline 109 % of control | dose: 100.0 mg/kg/injection, schedule: Q01DX001 (ip), vehicle: saline 97 % of control | [1] 105 % of control

O=[N+]([O-])c1ccccc1SNc1ccccc1
inactive: dose: 100.0 mg/kg/injection, schedule: Q01DX009 (ip), vehicle: Klucel (hydroxypropylcellulose) (HPC) 102 % of control | dose: 100.0 mg/kg/injection, schedule: Q04DX003 (ip), vehicle: Klucel (hydroxypropylcellulose) (HPC) 96 % of control | dose: 200.0 mg/kg/injection, schedule: Q01DX009 (ip), vehicle: Klucel (hydroxypropylcellulose) (HPC) 105 % of control | dose: 400.0 mg/kg/injection, schedule: Q01DX009 (ip), vehicle: Klucel (hydroxypropylcellulose) (HPC) 107 % of control | dose: 400.0 mg/kg/injection, schedule: Q04DX003 (ip), vehicle: Klucel (hydroxypropylcellulose) (HPC) 103 % of control

COc1ccc(COC(=O)NC2CCCCC2)cc1OC
inactive: dose: 65.0 mg/kg/injection, schedule: Q01DX009 (ip), vehicle: saline 93 % of control | dose: 100.0 mg/kg/injection, schedule: Q01DX009 (ip), vehicle: saline 93 % of control | [1] 112 % of control | dose: 150.0 mg/kg/injection, schedule: Q01DX009 (ip), vehicle: saline 101 % of control | dose: 200.0 mg/kg/injection, schedule: Q01DX009 (ip), vehicle: saline 104 % of control | [2] 118 % of control | dose: 400.0 mg/kg/injection, schedule: Q01DX009 (ip), vehicle: saline 102 % of control | [3] 102 % of control

C/C(=N/N=C(N)N)C(=O)O
inactive: dose: 15.0 mg/kg/injection, schedule: Q01DX Z (ip), vehicle: carboxymethylcellulose (CMC) 101 % of control | dose: 30.0 mg/kg/injection, schedule: Q01DX Z (ip), vehicle: carboxymethylcellulose (CMC) 97 % of control | dose: 60.0 mg/kg/injection, schedule: Q01DX Z (ip), vehicle: carboxymethylcellulose (CMC) 100 % of control and 101 % of control | dose: 120.0 mg/kg/injection, schedule: Q01DX Z (ip), vehicle: carboxymethylcellulose (CMC) 101 % of control and 103 % of control | dose: 240.0 mg/kg/injection, schedule: Q01DX Z (ip), vehicle: carboxymethylcellulose (CMC) 112 % of control | dose: 480.0 mg/kg/injection, schedule: Q01DX Z (ip), vehicle: carboxymethylcellulose (CMC) 98 % of control

COc1ccc(Nc2nc(N)nc(CNc3ccc(Cl)cc3)n2)cc1
inactive: [4] 98 % of control | [5] 103 % of control | [6] 98 % of control

C[n+]1ccc(Nc2ccc(NC(=O)c3ccc(Nc4cc[n+](C)c5ccc([N+](=O)[O-])cc45)cc3)cc2)cc1
active: dose: 16.0 mg/kg/injection, schedule: Q01DX009 (ip), vehicle: water 192 % of control | dose: 32.0 mg/kg/injection, schedule: Q01DX009 (ip), vehicle: water 262 % of control | [1] 201 % of control and 219 % of control | [2] 213 % of control | [3] 150 % of control and 153 % of control
inactive: dose: 1.0 mg/kg/injection, schedule: Q01DX009 (ip), vehicle: water 99 % of control | dose: 2.0 mg/kg/injection, schedule: Q01DX009 (ip), vehicle: water 112 % of control | dose: 4.0 mg/kg/injection, schedule: Q01DX009 (ip), vehicle: water 119 % of control | dose: 8.0 mg/kg/injection, schedule: Q01DX009 (ip), vehicle: water 116 % of control

CCOC1=CC(=O)C(C)(CC=C(C)C)C(C)C1 (stereo unspecified)
inactive: dose: 50.0 mg/kg/injection, schedule: Q01DX009 (ip), vehicle: saline with Tween-80 100 % of control | dose: 100.0 mg/kg/injection, schedule: Q01DX009 (ip), vehicle: saline with Tween-80 92 % of control | dose: 200.0 mg/kg/injection, schedule: Q01DX009 (ip), vehicle: saline with Tween-80 96 % of control

N#CC1CC2c3ccccc3C1c1ccccc12 (stereo unspecified)
inactive: [4] 97 % of control | [5] 94 % of control | [6] 100 % of control
